Values quoted from earlier work in patent US20070077258A1 (priority 2005, published 2007).
Read-outs that look alike come from different tables or passages of the source.

What was measured:
[1] = tested on: influenza virus in Normal Human Small Airway Epithelial Cells (SAEC)
[2] = tested on: influenza virus in Madin-Darby Canine Kidney (MDCK) Cells
[3] = 3 grams of glutathione by oral ingestion

N[C@@H](CCC(=O)N[C@@H](CS)C(=O)NCC(=O)O)C(=O)O [glutathione, gamma-glutamyl-cysteinyl-glycine]
tolerability (1500 mg /m2): well tolerated
tolerability (2500 mg daily for 5 days): well tolerated
toxicity reported (in vivo): No toxicity
replication of flu virus [1]: prevention of replication of flu virus was demonstrated
replication of flu virus [2]: prevention of replication of flu virus was demonstrated
effect on plasma glutathione levels [3]: does not elevate plasma glutathione levels
